Structures are written as SMILES. ≈ marks a conversion by molar mass, not a printed value.

The conditions of data set [1]: pH 7.4; background statement; cited from earlier work.
The test system of a further data set is cancer cells. As to conditions: apparently by amino acid transport system uptake; cited from earlier work.

Experimental for physchem: For solubility determinations, an excess of BPA was always used. All formulations were sonicated (ultrasonic wave treatment), adjusted to a final pH of 7.4, and filtered through a 0.22 micron filter. The BPA concentration of filtered solutions was calculated from B levels which were measured by inductively coupled plasma atomic emission spectrometry. […] Unless otherwise specified, BPA and B levels are reported as mean±standard error of the mean (SEM) of three experiments.

Consider `NC(Cc1ccc(B(O)O)cc1)C(=O)O` (stereo not shown) [BPA, P-boronophenylalanine], for which, in data set [1], the “water solubility at physiological pH” value is recorded as below 4 ppm. In addition, the “selective accumulation in cancer cells” value with cancer cells is “does seem to selectively accumulate in cancer cells”. Moreover, the solubility in “physchem” (buffer, pH 7.4, aqueous buffer) is 2200 ± 400 µg/mL (≈ 10.5 mM); in the data set “physchem” (water, pH 7.4, water), 1150 to 3700 µg/mL (≈ 5.5 to 17.7 mM).

For orientation: solubility means the concentration that dissolves in the medium under given conditions.

Source of the values: patent US5935944A, “Formulation for I.V. administration of the boron delivery drug, boronophenylalanine (BPA)” (Neutron Technology Corporation, priority 1996, dated 1999).
